Entries after “also recorded” stand apart in the source; their conditions may differ.
System: upper outer arm or back of each subject
Assay: Maximization assay (human patch test: induction, rest and challenge phases)
Format: in vivo
Design: key to Maximization Testing Results: 72-Hour Grading / Maximization Testing Results: 48-Hour Grading: 0=not sensitized; 1=mild sensitization (viz. erythema and a little edema); 2=moderate sensitization (erythema with infiltration, raised, spreading beyond the borders of the patch, with or without vesiculation); 3=strong sensitization (large vesicula-bullous reaction)
Conditions: for Maximization Testing Results: 48-Hour Grading: 48 hours after challenge patch; for Maximization Testing Results: 72-Hour Grading: 72 hours after challenge patch
Procedure: A group of 26 subjects were tested to compare the activity of lactic acid retinoate (single conjugate) with ethyl lactate retinoate (double conjugate). As a general protocol, a patch (Webril cotton with 0.05 ml of a 5.0% aqueous solution) was applied to the upper outer arm or back of each subject. The entire test was composed of (1) an induction phase (2) a rest phase and (3) a challenge phase.
The scoring scale was as follows: • 0=not sensitized; • 1=mild sensitization (viz. erythema and a little edema); • 2=moderate sensitization (erythema with infiltration, raised, spreading beyond the borders of the patch, with or without vesiculation); and • 3=strong sensitization (large vesicula-bullous reaction).

[1] = Subject Number 26 (one volunteer)

Compound	share of the sample population with a delayed skin irritation reaction presumptive of contact allergy (25 panelists completed) [%]	Maximization Testing Results: 48-Hour Grading (Subject Number 01-24)	Maximization Testing Results: 72-Hour Grading (Subject Number 01-24)	Maximization Testing Results: 48-Hour Grading [1]	Maximization Testing Results: 72-Hour Grading [1]	adverse or unexpected reactions in the panelists (induction phase)	skin irritation at the induction patch (leading to method deviation) (induction phase)	share of the sample population with any skin irritation or allergic reactions (26 subjects) [%]	instances of contact allergy (48 or 72 hours after application of the challenge patches)	Maximization Testing Results: 48-Hour Grading (Subject Number 01-26)	Maximization Testing Results: 72-Hour Grading (Subject Number 01-26)
CC1=C(/C=C/C(C)=C/C=C/C(C)=C/C(=O)OC(C)C(=O)O)C(C)(C)CCC1 (centres unmarked) [lactyl retinoate, 2-(((2E,4E,6E,8E)-3,7-dimethyl-9-(2,6,6-trimethylcyclohex-1-en-1-yl)nona-2,4,6,8-tetraenoyl)oxy)propanoic acid]	4	Subject Number: 01-24, 48-Hour Grading: 0	Subject Number: 01-24, 72-Hour Grading: 0	Subject Number: 26, 48-Hour Grading: 1	persisted at 72 hours (score 2); also recorded: Subject Number: 26, 72-Hour Grading: 2	No adverse or unexpected reactions were	many subjects had skin irritation sufficient enough to change protocol application				
CCOC(=O)[C@@H](C)OC(=O)/C=C(C)/C=C/C=C(C)/C=C/C1=C(C)CCCC1(C)C [ethyl lactate retinoate]								0	No instances of contact allergy were recorded	Subject Number: 01-26, 48-Hour Grading: 0	Subject Number: 01-26, 72-Hour Grading: 0
